Laboratory results as given in US20250215071A1, “Novel Mcl-1 inhibitor and combination of Mcl-1 and a BH3 mimetic, such as a Bcl-2 inhibitor” (NETRIS PHARMA, priority 2022, published 2025).

System: caspase-9
Assay: UNC5B-induced caspase-9 activity in HeLa UNC5B cells
Assay type: cell-based, Human
Details: Dox; 18 hours
Procedure: FIG. 5. UNC5B-mediated Mcl-1 degradation induces MOMP and caspase-9 activation. (A): UNC5B over-expression triggers Mitochondrial Outer Membrane Permeabilization (MOMP) in a COMMD2/CRL3 complex-dependent manner. Hela cells were transfected with scramble (siCTRL), COMMD2 (siCOMMD2-1) or RBX1 (siRBX1-1) siRNAs. 24 hours after transfection, cells were treated with Dox and after further 18 hours mitochondrial depolarization quantified by 5′,6,6′-tetrachloro-1,1′,3,3′-tetraethylbenzimi-dazolylcarbocyanine iodide (JC-1) dye staining, using NucleoCounter NC3000 (n=3, **** p<0.0001, ordinary two-way ANOVA with Tukey's multiple comparisons test). Values are given as means±SEM. (B,C,D): Apoptotic cell death induced by UNC5B over-expression requires caspase-9. HeLa UNC5B cells were transfected with scramble (siCTRL) or caspase-9 (siCASP9) siRNAs and 24 hours later treated with the indicated concentrations of Dox. Propidium iodide (PI)-positive cells were assessed in real-time up to 48 hours using Incucyte Zoom instrument (C) (n=[…], Kolmogorov-Smirnov test). DNA fragmentation was assessed by FACS analysis (D) and caspase-3 was measured using caspase-3 fluorometric kit (E), both 18 hours after treatment (n=[…], **** p<0.0001, ordinary two-way ANOVA with Šidák's multiple comparisons test). Values are given as means±SEM. […] HeLa UNC5B cells were treated with Dox and 18 hours later caspase-9 and -8 activities were assessed by fluorometric kit, using specific substrates (n=3, ^nsp>0.05, *p<0.05, Mann-Whitney test, one-tailed). […] 24 hours later, cells were treated with Dox and caspase-9 activity was measured by fluorometric kit (n=3, **** p<0.0001, ordinary two-way ANOVA with Tukey's multiple comparisons test). […] 18 hours after treatment, caspase-9 activity was assessed with the fluorometric kit (n=5, *p<0.05, ** p<0.01, *** p<0.001, **** p<0.0001, ordinary two-way ANOVA with Tukey's multiple comparisons test). […] Cells were then treated with Dox and Mcl-1 protein was evaluated by western blot. […]

CC(C)C[C@H](NC(=O)[C@H](Cc1ccccc1)NC(=O)c1cnccn1)B(O)O [bortezomib]
UNC5B-induced caspase-9 activation: sufficient to prevent UNC5B-induced caspase-9 activation
